Measurements as given in ChEMBL document CHEMBL3856280, “Targeting the HSP60/10 chaperonin systems of Trypanosoma brucei as a strategy for treating African sleeping sickness” (Bioorg Med Chem Lett, 2016).

What was measured:
[1] = tested on: Trypanosoma brucei brucei; experiment: Antitrypanosomal activity against Trypanosoma brucei brucei Lister 427 VSG 221 [TetR T7RNAP] transgenic bloodstream forms assessed as reduction in cell viability after 48 hrs by alamar blue assay; format: functional; settings: Lister 427 VSG 221, 48 h
E. coli GroEL/ES [2] = target: T1, E. coli GroEL/ES (Escherichia coli, UniProt P0A6F5); experiment: Inhibition of Escherichia coli GroEL/GroES expressed in Escherichia coli DH5alpha/BL21 (DE3) assessed as inhibition of denatured MDH refolding preincubated for 10 mins followed by ATP addition measured after 20 to 40 mins by fluorescence based assay
HSP60/HSP10 [3] = target: T2, HSP60/HSP10 (Homo sapiens, UniProt P10809); experiment: Inhibition of human mitochondrial HSP60/HSP10 expressed in Escherichia coli DH5alpha/BL21 (DE3) assessed as inhibition of denatured MDH refolding preincubated for 10 mins followed by ATP addition measured after 40 to 60 mins by fluorescence based assay
E. coli GroEL/ES [4] = target: T1, E. coli GroEL/ES; experiment: Inhibition of Escherichia coli GroEL/GroES-ATPase activity expressed in Escherichia coli DH5alpha/BL21 (DE3) assessed as inhibition of denatured MDH refolding preincubated for 10 mins followed by ATP addition measured after 20 to 40 mins by malachite green dye based fluorescence assay
HSP60/HSP10 [5] = target: T2, HSP60/HSP10; experiment: Inhibition of human mitochondrial HSP60/HSP10-ATPase activity expressed in Escherichia coli DH5alpha/BL21 (DE3) assessed as inhibition of denatured MDH refolding preincubated for 10 mins followed by ATP addition measured after 40 to 60 mins by malachite green dye based fluorescence assay
[6] = Cytotoxicity against human THLE3 cells assessed as reduction in cell viability after 48 hrs by alamar blue assay; format: toxicity, cell-based
[7] = Cytotoxicity against HEK293 cells assessed as reduction in cell viability after 48 hrs by alamar blue assay; format: toxicity, cell-based; settings: human
[8] = Inhibition of pig heart native MDH reporter reaction after 20 to 40 mins by fluorescence based assay; parameters: species or system Sus scrofa

T1 sequence (P0A6F5 whole entry, looked up): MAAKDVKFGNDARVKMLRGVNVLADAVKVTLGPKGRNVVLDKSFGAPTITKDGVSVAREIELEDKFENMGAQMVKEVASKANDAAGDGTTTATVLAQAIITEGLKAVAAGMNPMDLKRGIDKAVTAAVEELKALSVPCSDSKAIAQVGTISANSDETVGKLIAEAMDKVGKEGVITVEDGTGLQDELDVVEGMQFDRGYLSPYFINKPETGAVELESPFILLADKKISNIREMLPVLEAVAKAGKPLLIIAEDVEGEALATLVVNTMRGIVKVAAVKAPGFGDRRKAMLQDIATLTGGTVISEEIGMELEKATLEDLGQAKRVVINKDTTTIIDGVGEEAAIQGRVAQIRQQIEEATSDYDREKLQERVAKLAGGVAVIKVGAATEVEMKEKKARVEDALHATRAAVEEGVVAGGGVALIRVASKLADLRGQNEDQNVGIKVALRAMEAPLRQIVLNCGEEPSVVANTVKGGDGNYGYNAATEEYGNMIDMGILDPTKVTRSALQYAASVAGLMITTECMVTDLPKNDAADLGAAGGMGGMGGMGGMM
T2 sequence (P10809 whole entry): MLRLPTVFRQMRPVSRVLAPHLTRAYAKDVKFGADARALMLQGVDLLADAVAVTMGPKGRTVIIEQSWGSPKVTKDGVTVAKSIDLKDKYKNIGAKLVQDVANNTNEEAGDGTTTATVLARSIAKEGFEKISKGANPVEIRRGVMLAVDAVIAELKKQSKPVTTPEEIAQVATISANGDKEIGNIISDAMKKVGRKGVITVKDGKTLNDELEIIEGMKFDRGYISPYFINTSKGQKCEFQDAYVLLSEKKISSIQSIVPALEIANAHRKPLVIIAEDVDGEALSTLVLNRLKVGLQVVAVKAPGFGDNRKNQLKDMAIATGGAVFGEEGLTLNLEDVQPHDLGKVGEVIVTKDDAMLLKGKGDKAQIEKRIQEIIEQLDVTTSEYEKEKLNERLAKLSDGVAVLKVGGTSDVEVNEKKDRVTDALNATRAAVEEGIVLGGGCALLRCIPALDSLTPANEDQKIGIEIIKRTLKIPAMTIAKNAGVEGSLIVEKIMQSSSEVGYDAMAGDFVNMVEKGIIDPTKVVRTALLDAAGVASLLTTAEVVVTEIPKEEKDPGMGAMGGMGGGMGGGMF
T2 sequence (P61604 whole entry, further chain): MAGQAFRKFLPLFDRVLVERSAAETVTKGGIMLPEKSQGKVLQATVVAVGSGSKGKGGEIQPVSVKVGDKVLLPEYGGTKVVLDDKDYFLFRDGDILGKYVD

SMILES: CS(=O)(=O)Nc1ccc(-c2nc3cc(NS(C)(=O)=O)ccc3o2)cc1
- EC50 [1]: > 42 µM
- IC50 (E. coli GroEL/ES [2]): > 100 µM
- IC50 (HSP60/HSP10 [3]): > 100 µM
- IC50 (E. coli GroEL/ES [4]): > 250 µM
- IC50 (HSP60/HSP10 [5]): > 250 µM
- EC50 at 48 h [6]: > 100 µM
- EC50 at 48 h [7]: > 100 µM
- IC50 [8]: > 63 µM

SMILES: O=S(=O)(Nc1ccc(-c2nc3cc(NS(=O)(=O)c4ccccc4)ccc3o2)cc1)c1ccccc1
- EC50 [1]: 6.4 µM
- IC50 (E. coli GroEL/ES [2]): 3.9 µM
- IC50 (HSP60/HSP10 [3]): > 100 µM
- IC50 (E. coli GroEL/ES [4]): 4.6 µM
- IC50 (HSP60/HSP10 [5]): > 250 µM
- EC50 at 48 h [6]: 19 µM
- EC50 at 48 h [7]: 15 µM
- IC50 [8]: > 63 µM

SMILES: O=S(=O)(Nc1ccc(-c2nc3cc(NS(=O)(=O)c4ccccc4O)ccc3o2)cc1)c1ccccc1O
- EC50 [1]: 5 µM
- IC50 (E. coli GroEL/ES [2]): 7.5 µM
- IC50 (HSP60/HSP10 [3]): 13 µM
- IC50 (E. coli GroEL/ES [4]): 36 µM
- IC50 (HSP60/HSP10 [5]): 33 µM
- EC50 at 48 h [6]: 19 µM
- EC50 at 48 h [7]: 18 µM

SMILES: O=S(=O)(Nc1ccc(-c2nc3cc(NS(=O)(=O)c4cccc5nsnc45)ccc3o2)cc1)c1cccc2nsnc12
- EC50 [1]: > 42 µM
- IC50 (E. coli GroEL/ES [2]): 22 µM
- IC50 (HSP60/HSP10 [3]): 98 µM
- IC50 (E. coli GroEL/ES [4]): 127 µM
- IC50 (HSP60/HSP10 [5]): 152 µM
- EC50 at 48 h [6]: > 100 µM
- EC50 at 48 h [7]: 52 µM
- IC50 [8]: > 63 µM

SMILES: O=S(=O)(Cc1ccccc1)Nc1ccc(-c2nc3cc(NS(=O)(=O)Cc4ccccc4)ccc3o2)cc1
- EC50 [1]: 13 µM
- IC50 (E. coli GroEL/ES [2]): 55 µM
- IC50 (HSP60/HSP10 [3]): > 100 µM
- IC50 (E. coli GroEL/ES [4]): 208 µM
- IC50 (HSP60/HSP10 [5]): > 250 µM
- EC50 at 48 h [6]: 29 µM
- EC50 at 48 h [7]: 19 µM
- IC50 [8]: > 63 µM

SMILES: O=c1ccc2cc(S(=O)(=O)Nc3ccc(-c4nc5cc(NS(=O)(=O)c6ccc7oc(=O)ccc7c6)ccc5o4)cc3)ccc2o1
- EC50 [1]: > 42 µM
- IC50 (E. coli GroEL/ES [2]): 18 µM
- IC50 (HSP60/HSP10 [3]): 70 µM
- IC50 (E. coli GroEL/ES [4]): 83 µM
- IC50 (HSP60/HSP10 [5]): 201 µM
- EC50 at 48 h [6]: > 100 µM
- EC50 at 48 h [7]: > 100 µM
- IC50 [8]: > 63 µM

SMILES: O=S(=O)(Nc1ccc(-c2nc3cc(NS(=O)(=O)c4cccc5ccccc45)ccc3o2)cc1)c1cccc2ccccc12
- EC50 [1]: 2.1 µM
- IC50 (E. coli GroEL/ES [2]): 23 µM
- IC50 (HSP60/HSP10 [3]): > 100 µM
- IC50 (E. coli GroEL/ES [4]): 54 µM
- IC50 (HSP60/HSP10 [5]): 144 µM
- EC50 at 48 h [6]: 69 µM
- EC50 at 48 h [7]: > 100 µM
- IC50 [8]: > 63 µM

SMILES: CCCS(=O)(=O)Nc1ccc(-c2nc3cc(NS(=O)(=O)CCC)ccc3o2)cc1
- EC50 [1]: 18 µM
- IC50 (E. coli GroEL/ES [2]): > 100 µM
- IC50 (HSP60/HSP10 [3]): > 100 µM
- IC50 (E. coli GroEL/ES [4]): > 250 µM
- IC50 (HSP60/HSP10 [5]): > 250 µM
- EC50 at 48 h [6]: > 100 µM
- EC50 at 48 h [7]: > 100 µM
- IC50 [8]: > 63 µM

SMILES: O=S(=O)(Nc1ccc(-c2nc3cc(NS(=O)(=O)c4cccc5nonc45)ccc3o2)cc1)c1cccc2nonc12
- EC50 [1]: > 42 µM
- IC50 (E. coli GroEL/ES [2]): 32 µM
- IC50 (HSP60/HSP10 [3]): 66 µM
- IC50 (E. coli GroEL/ES [4]): > 250 µM
- IC50 (HSP60/HSP10 [5]): 212 µM
- EC50 at 48 h [6]: 58 µM
- EC50 at 48 h [7]: 45 µM
- IC50 [8]: > 63 µM

SMILES: O=S(=O)(Nc1ccc(-c2nc3cc(NS(=O)(=O)c4ccc5ncsc5c4)ccc3o2)cc1)c1ccc2ncsc2c1
- EC50 [1]: 25 µM
- IC50 (E. coli GroEL/ES [2]): 0.81 µM
- IC50 (HSP60/HSP10 [3]): 49 µM
- IC50 (E. coli GroEL/ES [4]): 0.55 µM
- IC50 (HSP60/HSP10 [5]): > 250 µM
- EC50 at 48 h [6]: 30 µM
- EC50 at 48 h [7]: 95 µM
- IC50 [8]: > 63 µM

SMILES: O=S(=O)(Nc1ccc(-c2nc3cc(NS(=O)(=O)C(F)(F)F)ccc3o2)cc1)C(F)(F)F
- EC50 [1]: > 42 µM
- IC50 (E. coli GroEL/ES [2]): 40 µM
- IC50 (HSP60/HSP10 [3]): 97 µM
- IC50 (E. coli GroEL/ES [4]): > 250 µM
- IC50 (HSP60/HSP10 [5]): > 250 µM
- EC50 at 48 h [6]: > 100 µM
- EC50 at 48 h [7]: > 100 µM
- IC50 [8]: > 63 µM

SMILES: O=S(=O)(Nc1ccc(-c2nc3cc(NS(=O)(=O)c4cccs4)ccc3o2)cc1)c1cccs1
- EC50 [1]: 17 µM
- IC50 (E. coli GroEL/ES [2]): 4.6 µM
- IC50 (HSP60/HSP10 [3]): 57 µM
- IC50 (E. coli GroEL/ES [4]): 6.7 µM
- IC50 (HSP60/HSP10 [5]): > 250 µM
- EC50 at 48 h [6]: 44 µM
- EC50 at 48 h [7]: 26 µM
- IC50 [8]: > 63 µM

SMILES: O=S(=O)(Nc1ccc(-c2nc3cc(NS(=O)(=O)c4ccc5nsnc5c4)ccc3o2)cc1)c1ccc2nsnc2c1
- EC50 [1]: > 42 µM
- IC50 (E. coli GroEL/ES [2]): 3.7 µM
- IC50 (HSP60/HSP10 [3]): 62 µM
- IC50 (E. coli GroEL/ES [4]): 1.7 µM
- IC50 (HSP60/HSP10 [5]): 127 µM
- EC50 at 48 h [6]: 45 µM
- EC50 at 48 h [7]: 76 µM
- IC50 [8]: > 63 µM
